Values quoted from earlier work as cited in patent publication US20230346696A1, “SPRAY DRIED LOW HYGROSCOPICITY ACTIVE POWDER COMPOSITIONS” (PHILIP MORRIS PRODUCTS S.A., priority 2020, published 2023).

Conditions: 25° C.

## OC[C@H]1O[C@H](O[C@H]2O[C@H](CO)[C@@H](O)[C@H](O)[C@H]2O)[C@H](O)[C@@H](O)[C@@H]1O [trehalose]
  solubility: 69 g/100 ml water
